“Also recorded” adds a separate entry of the source.
How the values were obtained:
[1] = system: (GGGGCC)66-expressing cells; test: Poly(GP) MSD immunoassay of cell lysates; format: cell-based; details: 24 h
Protocol: Western blot analysis of c9RAN proteins. HEK293 cells were cultured in Opti-Mem supplemented with 10% FBS and 1% penicillin/streptomycin. […] Twenty-four hours later, cell pellets were collected. […] Western blotting was performed as previously described (Gendron et al., 2013). […] After centrifugation at 16,000×g for 20 min at 4° C., the supernatant was collected and protein concentration determined by BCA assay. […] Anti-GAPDH (1:10,000, BioDesign) was used to ensure equal loading among wells. Membranes were washed three times for 10 min in TBST and incubated with donkey anti-rabbit or anti-mouse IgG conjugated to horseradish peroxidase (1:5000; […] Protein expression was visualized by enhanced chemiluminescence treatment and exposure to film. Immunoassay analysis of c9RAN proteins. As an alternative means to measure poly(GP) proteins, Meso Scale Discovery (MSD) electrochemiluminescence detection technology was utilized to establish sandwich immunoassays using polyclonal anti-GP as capture and detection antibodies. […] Poly(GP) proteins were also measured in lysates from cultured cells (10-35 μg of protein per well) prepare as described above, or from RIPA-soluble homogenates from frozen frontal cortical tissues (35 μg of protein per well). Brain homogenates were prepared as previously described (Almeida et al., 2013). In brief, tissue was lysed in cold RIPA buffer and sonicated on ice. Lysates were cleared by centrifugation at 100,000 g for 30 min at 4° C. The supernatant was collected and protein concentration was determined by BCA assay.

C9ORF72+ iNeurons [2] = test: RNA-FISH of RNA foci in iNeurons; format: cell-based, human; details: three C9ORF72+ iNeuron lines; 2 μM, four days
Protocol: Qiagen) for 15 min at 37° C., or with DNase I (3 U/ml; Invitrogen) for 30 minutes at room temperature, prior to dehydration. Cells were incubated in hybridization buffer (10% dextran sulfate, 50% formamide, 50 mM sodium phosphate buffer (pH 7), 2×SSC) at 66° C. for 20-60 min. […] Cells were hybridized with probe in a sealed, light-protected chamber for 16 h-24 h at 66° C. The coverslips were subsequently washed with 0.1% Tween-20/2×SSC for 5 min followed by three 10 min stringency washes in 0.1×SSC at 66° C. The cells were stained with Hoechst (Invitrogen), rinsed with DEPC-treated water, dehydrated through 70% and 100% ethanol and air dried. Coverslips were mounted with Prolong Gold antifade reagent (Life Technologies). […] For each of 3 cell lines, 3 fields were randomly selected per condition. For each field, the number of foci-positive nuclei and the total number of nuclei were counted to determine the average percentage of foci-positive cells.

[3] = system: r(CCCCGG)66-expressing cells; test: RAN translation in cells expressing antisense repeats (immunoassay); format: cell-based; details: 100 μM, 24 h
Protocol: Immunoassay analysis of c9RAN proteins. As an alternative means to measure poly(GP) proteins, Meso Scale Discovery (MSD) electrochemiluminescence detection technology was utilized to establish sandwich immunoassays using polyclonal anti-GP as capture and detection antibodies. […] Poly(GP) proteins were also measured in lysates from cultured cells (10-35 μg of protein per well) prepare as described above, or from RIPA-soluble homogenates from frozen frontal cortical tissues (35 μg of protein per well). Brain homogenates were prepared as previously described (Almeida et al., 2013). In brief, tissue was lysed in cold RIPA buffer and sonicated on ice. Lysates were cleared by centrifugation at 100,000 g for 30 min at 4° C. The supernatant was collected and protein concentration was determined by BCA assay. […] A second MSD sandwich immunoassay was developed for the detection of poly(PR) proteins using polyclonal anti-PR as capture and detection antibodies. To validate specificity of the poly(PR) assay, lysates from cells transfected to express each possible protein RAN translated from the sense or antisense transcripts of the expanded C9ORF72 repeat [GFP-(GA)5, GFP-(GR)5, GFP-(GP)5, GFP-(PA)5, GFP-(PR)5] were assayed, as were lysates from cells expressing ([…]. 2F). Western blot analysis and RNA-FISH of cells expressing antisense repeats. […]

r(GGGGCC)66 = test: Identification of cellular RNA targets by 1a-CA-biotin pull-down and qRT-PCR (competitive profiling); format: cell-based; details: co-treatment with 1a-CA-biotin and compound
C9ORF72+ iNeurons [4] = test: Poly(GP) and poly(PR) inclusions in iNeurons (immunocytochemistry); format: cell-based, human; details: 2 or 4 μM, four days
r(GGGGCC)8 [5] = test: Optical melting of r(GGGGCC)8 in the presence of small molecule; format: binding; details: for increase of Tm of r(GGGGCC)8 / stabilization of the RNA (r(GGGGCC)8 stability): 1 μM RNA, 3 μM compound; for increase of Tm of r(GGGGCC)8 / stabilization of the RNA (r(GGGGCC)8 stability) / ΔG / Tm: 100 mM NaCl; for ΔG: 37° C.; for ΔG / ΔH / ΔS / Tm: r(GGGGCC)8 1 uM + compound 3 μM; for ΔH / ΔS: 10 mM Tris HCl pH 7.4, 100 mM NaCl
r(CGG)12 = test: Biolayer interferometry (BLI) binding affinity, r(CGG)12
Protocol: (§1) The RNA (200 μL aliquots) was then added to a black 96-well plate (Greiner Bio-One). […] A sample with no compound was used as background. All experiments were performed at 30° C. with agitation set to 1000 rpm. The biotinylated RNA (ligand) was loaded onto the surface of streptavidin biosensors (SA) for 660 s. […] Biosensors were then washed in 1× Kinetics Buffer for 300 s followed by association of the compound (analyte) for 5000 s. Finally, dissociation of the ligand-analyte interaction was analyzed for 5000 s. The resulting curves were corrected by subtracting the response recorded on a sensor loaded with ligand (RNA) but incubated with no analyte (compound). Data analyses and curve fitting were completed using Octet Data Analysis, version 7.0. Experimental data were fitted using the 2:1 heterogeneous ligand (HL) curve fit. Global analysis of all data sets acquired for different analyte concentrations, assuming reversible binding, was completed using nonlinear least squares fitting. […] [formula] where [Analyte] is the concentration of compound, Req is the estimated response at equilibrium, kon is association constant, koff is dissociation constant.

[6] = system: r(CGG)60-expressing cells; details: cited from earlier work
[7] = system: cells expressing (CGG)88 placed in the 5'UTR of GFP; test: Western blot analysis of RAN translation in a FXTAS cell model; format: cell-based; details: COS7 cells, anti-GFP
Protocol: Western blot analysis of RAN translation in a FXTAS cell model. Studies were completed using a plasmid in which r(CGG)88 is embedded in the 5′ UTR of an open reading frame encoding GFP (Todd et al., 2013). Therefore, RAN products are fused to GFP and can be detected using an anti-GFP antibody (Todd et al., 2013). COS7 cells were grown as monolayers in 96-well plates in growth medium (1× DMEM, 10% FBS, and 1× GlutaMax (Invitrogen)). […] Compound 1a was added to the transfection cocktail, which was then applied to the cells. The transfection cocktail was replaced with growth medium containing 1a approximately 5 h post transfection, and the cells were incubated at 37° C. for 18 h. Cells were lysed in the plate using 100 μl/well of MPER Mammalian Protein Extraction Reagent (Pierce Biotechnology) containing 1 μl of Halt Protease Inhibitor cocktail (Thermo Scientific). Cellular proteins were separated by SDS-PAGE (10% polyacrylamide) and then transferred to a PVDF membrane by wet transfer method. Protein content was analyzed by Western blotting by using anti-GFP (Santa Cruz) or anti-β-actin (Sigma Aldrich) as primary antibodies and anti-IgG-horseradish peroxidase conjugate as the secondary antibody. Chemiluminescent signal was generated by SuperSignal West Pico Chemiluminescent substrate (Thermo Scientific), and the blot was imaged with X-ray film (Phenix Research).

[8] = system: hairpin with a fully paired stem; test: Biolayer interferometry (BLI) binding affinity, fully paired hairpin
Protocol: as §1

[9] = system: (GGGGCC)66-expressing cells; test: RNA-FISH of nuclear foci; format: cell-based; details: compound treatment 24 h
Protocol: RNA fluorescence in situ hybridization (FISH) of ([NT]-expressing cells. […] Cells were hybridized with denatured Cy3-conjugated ([NT])4 probe (2 ng/μl) in hybridization buffer (50% formamide, 10% dextran sulfate, 0.1 mg/mL yeast tRNA, 2×SSC, 50 mM sodium phosphate) overnight at 37° C. Cells were then washed once with 40% formamide/1×SSC for 30 min at 37° C. and twice with DEPC-PBS at room temperature for 5 min, followed by counterstaining with Hoechst 33258 (1 μg/ml, Invitrogen). Immunostained cells were visualized using a Zeiss Axiovert Fluorescence Microscope with apotome module. […] To quantify foci-bearing cells, coverslips mounted on slides were scanned by Aperio ScanScope. Ten fields were randomly selected under 20× magnification. For each field, the number of foci-positive nuclei and the total number of nuclei were counted using MetaMorph software. These counts were used to determine the average percentage of foci-positive cells for each condition.

C9ORF72 mRNA = test: qRT-PCR of C9ORF72 mRNA in iNeurons; format: cell-based, human; details: 4 μM, 4 d; all variants and long form
Protocol: RNA was extracted using the Direct-Zol RNA kit combined with in-column DNase I digestion, as per the manufacturer's instructions (Zymo Research, Irvine, Calif., USA). RNA integrity was obtained using the Agilent 2100 Bioanalyzer (Agilent Technologies, Santa Clara, Calif., USA). cDNA was obtained after reverse transcription polymerase chain reactions (RT-PCR) using approximately 500 ng of RNA with random primers and the High Capacity cDNA Transcription Kit (Applied Biosystems, Foster City, Calif., USA) as per the manufacturer's instructions. […] Relative quantification of C9ORF72 variants was determined using the ΔΔCt method and normalized to GAPDH.

r(GGGGCC)8 [10] = test: Biolayer interferometry (BLI) binding affinity, r(GGGGCC)8; details: BLI kinetic binding; no additional cation
Protocol: as §1

[11] = system: r(CCCCGG)66-expressing cells; test: RNA-FISH of cells expressing antisense repeats; format: cell-based
Protocol: Western blot analysis and RNA-FISH of cells expressing antisense repeats. To examine the effect of 1a on RAN translation and foci formation in cells expressing antisense ([NT]) repeats, we utilized a previously described ([NT])66 expression vector (Gendron et al., 2013). Transfection, treatment, Western blotting, and RNA-FISH using a [NT] probe from IDT, were conducted as described above for ([NT])66-expressing cells.

[12] = system: (GGGGCC)66-expressing cells; test: Western blot analysis of c9RAN proteins (RAN translation); format: cell-based; details: HEK293 cells; 100 μM, 24 h (for compound 3)
r(GGGGCC)8 [13] = details: cited from earlier work

Row | Compound | amount of r(GGGGCC)66 that forms an adduct with 1a-CA-biotin in the presence of compound (r(GGGGCC)66) | increase of Tm of r(GGGGCC)8 (r(GGGGCC)8 [5]) | stabilization of the RNA (r(GGGGCC)8 stability) (r(GGGGCC)8 [5]) | ΔG (r(GGGGCC)8 [5]) [kcal/mol] | ΔH (r(GGGGCC)8 [5]) [kcal/mol] | ΔS (r(GGGGCC)8 [5]) [cal/K · mol] | Tm (r(GGGGCC)8 [5]) [°C] | Kd for r(CGG)12 compared with r(GGGGCC)8 (r(CGG)12) | binding to a hairpin with a fully paired stem compared with r(GGGGCC)8 [8] | percentage of foci-positive cells [9] | Kd (r(GGGGCC)8 [10]) [µM] | poly(GA) protein production (RAN translation) [12] | synthesis of poly(GP) proteins (RAN translation) [12] | further results
1 | Cc1c2cc[n+](CCN3CCCCC3)cc2c(C)c2c1[nH]c1ccc(O)cc12 [Compound 1a] | significantly depleted | 3.1 °C | 0.95 kcal/mol | -9.93 ± 0.15 | -74.4 ± 1.0 | -208 ± 3 | 84.7 ± 0.2 | similar | bind more weakly | significantly decreased | 9.7 | significantly decreased | significantly decreased | decrease in poly(GP) protein ([1]; 25 μM): 10%; decrease in poly(GP) protein ([1]; 50 μM): 18%; decrease in poly(GP) protein ([1]; 100 μM): 47%; percentage of cells with RNA foci (C9ORF72+ iNeurons [2]): significantly decreased; poly(GP) proteins RAN translated from antisense transcripts [3]: no effect; poly(PR) proteins RAN translated from antisense transcripts [3]: no effect; poly(PR) expression (inclusions), synthesized from the antisense transcript (C9ORF72+ iNeurons [4]): no change; percentage of cells with poly(GP) inclusions (RAN translation of poly(GP)) (C9ORF72+ iNeurons [4]; listed as la): significantly decreased; also recorded: dose-dependent decrease; nuclear foci in r(CGG)60-expressing cells [6]: does reduce nuclear foci; RAN translation in cells expressing (CGG)88 [7]: inhibits RAN translation; downstream canonical translation (GFP) [7]: does not affect; C9ORF72 mRNA levels (C9ORF72 mRNA): no effect; percentage of cells bearing r(CCCCGG) foci [11]: no change
2 | CCN(CC)CCNC(=O)c1cc2cc(NC(=O)c3cc4cc(N)ccc4[nH]3)ccc2[nH]1 [Compound 3] | significantly depleted | did not significantly affect | did not significantly affect | -9.10 ± 0.24 | -71.1 ± 1.5 | -200 ± 4 | 82.2 ± 0.2 | similar | bind more weakly | not | 16 | did not influence | modestly inhibited | 
3 | C[n+]1ccc(-c2c3nc(c(-c4cc[n+](C)cc4)c4ccc([nH]4)c(-c4cc[n+](C)cc4)c4ccc([nH]4)c(-c4cc[n+](C)cc4)c4nc2C=C4)C=C3)cc1 [TMPyP4] |  |  |  |  |  |  |  |  |  |  |  |  |  | binding to r(GGGGCC)8 in vitro (r(GGGGCC)8 [13]): binds

— patent US10465196B2, “Treatment of C9FTD/ALS by targeting RNA expanded repeat sequences” (THE SCRIPPS RESEARCH INSTITUTE, priority 2014, dated 2019)
